Test results reported in patent US20260199485A1, “RNA DEGRADERS AND USES THEREOF” (Arrakis Therapeutics, Inc., priority 2022, published 2026).

target: T1, CNOT7 (Homo sapiens, UniProt Q9UIV1); test: Binding of compounds to CNOT7 by surface plasmon resonance (SPR); conditions: Table 6; dissociation constant for CNOT7 by SPR
T1 construct: biotin (biotinylated); purchased Ichor Life Sciences
Experimental: Surface plasmon resonance (SPR) was used to evaluate the binding of compounds to CNOT7. Experiments were performed on a Biacore 8K (Cytiva) with a running buffer consisting of 20 mM HEPES pH7.5, 100 mM KCl, 3 mM MgCl2, 1 mM TCEP, 0.05% tween-20, 2% DMSO. Briefly, biotinylated CNOT7 (Ichor Life Sciences) at a concentration of 70 μg/ml was immobilized to a streptavidin coated chip (Cytiva sensor chip SA) for 1200 sec at a flow rate of 5 μl/min (typical immobilization level 7,500 RU). For compound binding experiments, various concentrations of analyte were flowed over the chip with 120 sec association phase, 120 sec dissociation phase, at a flow rate of 30 ul/min and collection rate of 10 Hz. Reference channel subtraction and solvent correction were applied to all sensograms prior to data analysis. Sensograms were fit to 1:1 steady state affinity model. FIGS. 3 and 4 show the binding of exemplary compounds and the AMP control (a known CNOT7 active site binder) at various concentrations to CNOT7.

T1 sequence (Q9UIV1 whole entry): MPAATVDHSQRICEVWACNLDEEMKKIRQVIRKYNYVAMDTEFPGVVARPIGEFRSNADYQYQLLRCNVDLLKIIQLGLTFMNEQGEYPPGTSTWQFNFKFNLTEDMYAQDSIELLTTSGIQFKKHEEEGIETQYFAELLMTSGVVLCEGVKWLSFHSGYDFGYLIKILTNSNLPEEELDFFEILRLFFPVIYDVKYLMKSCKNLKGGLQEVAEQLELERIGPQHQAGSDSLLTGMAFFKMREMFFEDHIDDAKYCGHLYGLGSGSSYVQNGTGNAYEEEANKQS

COC[C@H](Sc1nc(=O)[nH]cc1C)C(=O)N[C@@H](C)c1ccc2c(c1)CC(=O)N2 [Compound I-325] and Cc1c[nH]c(=O)nc1SCC(=O)N[C@@H](C)c1ccc2c(c1)CC(=O)N2 [Compound I-328] fall in the same range of Kd: 1 to 25 µM for the first, 1 to 25 µM for the second.

C#CCOCCOCCOCC(Sc1nc(=O)[nH]cc1C)C(=O)NC(C)c1ccc(OC)cc1F (stereo not drawn) [Compound I-326] and COc1ccc([C@@H](NC(=O)CSc2nc(=O)[nH]cc2C)C(C)C)cc1 [Compound I-327] fall in the same range of Kd: 1 to 25 µM for the first, 1 to 25 µM for the second.

same assay, conditions: dissociation constant by SPR, Table 7

COC[C@H](Sc1nc(=O)[nH]cc1C)C(=O)N[C@@H](C)c1ccc2c(c1)CC(=O)N2 [Compound I-325] and COCC(Sc1nc(=O)[nH]cc1C)C(=O)NC(C)c1ccc2c(c1)CC(=O)N2 (stereo not drawn) [Compound I-331] fall in the same range of Kd: 1 to 25 µM for the first, 1 to 25 µM for the second.

C#CCOCCOCCOCC(Sc1nc(=O)[nH]cc1C)C(=O)NC(C)c1ccc(OC)cc1F (stereo not drawn) [Compound I-326] and C#CCOCCOCCOCC(Sc1nc(=O)[nH]cc1Cl)C(=O)NC(C)c1ccc(OC)cc1F (stereo not drawn) [Compound I-342] fall in the same range of Kd: 1 to 25 µM for the first, 1 to 25 µM for the second.

First: COc1ccc([C@@H](NC(=O)CSc2nc(=O)[nH]cc2C)C(C)C)cc1 [Compound I-327]
Second: COc1ccc(C(CN(C)C)NC(=O)CSc2nc(=O)[nH]cc2C)cc1 (stereo not drawn) [Compound I-340]
The Kd of the first is lower: 1 to 25 µM for the first, over 25 µM for the second.

Cc1c[nH]c(=O)nc1SCC(=O)N[C@@H](C)c1ccc2c(c1)CC(=O)N2 [Compound I-328] and COC[C@@H](Sc1nc(=O)[nH]cc1C)C(=O)N[C@@H](C)c1ccc2c(c1)CC(=O)N2 [Compound I-332] fall in the same range of Kd: 1 to 25 µM for the first, 1 to 25 µM for the second.

COC[C@@H](Sc1nc(=O)[nH]cc1Cl)C(=O)N[C@H](C)c1ccc2c(c1)CC(=O)N2 [Compound I-333] and COC[C@H](Sc1nc(=O)[nH]cc1Cl)C(=O)N[C@H](C)c1ccc2c(c1)CC(=O)N2 [Compound I-334] fall in the same range of Kd: 1 to 25 µM for the first, 1 to 25 µM for the second.

COc1ccc([C@@H](C)NC(=O)[C@@H](CCOCCOCCOCCN=[N+]=[N-])Sc2nc(=O)[nH]cc2Cl)c(F)c1 [Compound I-349] and COc1ccc([C@@H](C)NC(=O)[C@@H](COCCOCCOCCN=[N+]=[N-])Sc2nc(=O)[nH]cc2Cl)c(F)c1 [Compound I-392] fall in the same range of Kd: 1 to 25 µM for the first, 1 to 25 µM for the second.

COc1ccc([C@@H](C)NC(=O)[C@@H](COCCOCCOCCN=[N+]=[N-])Sc2nc(=O)[nH]cc2C)c(F)c1 [Compound I-367] and COc1ccc([C@@H](C)NC(=O)[C@H](COCCOCCOCCN=[N+]=[N-])Sc2nc(=O)[nH]cc2C)c(F)c1 [Compound I-368] fall in the same range of Kd: 1 to 25 µM for the first, 1 to 25 µM for the second.

COc1ccc([C@@H](C)NC(=O)[C@@H](CCOCCOCCOCCN=[N+]=[N-])Sc2nc(=O)[nH]cc2C)c(F)c1 [Compound I-378] and COc1ccc(CNC(=O)[C@@H](COCCOCCOCCN=[N+]=[N-])Sc2nc(=O)[nH]cc2C)c(F)c1 [Compound I-405] fall in the same range of Kd: 1 to 25 µM for the first, 1 to 25 µM for the second.

COc1ccc(C(C)NC(=O)C(CCOCCOCCOCCn2cc(CCc3ccc(NC(=O)Nc4nc(CC(=O)N5CCN(C)CC5)cs4)cc3)nn2)Sc2nc(=O)[nH]cc2Cl)c(F)c1 (stereo not drawn) [Compound I-384] and COc1ccc(CNC(=O)[C@@H](CCOCCOCCOCCN=[N+]=[N-])Sc2nc(=O)[nH]cc2Cl)c(F)c1 [Compound I-401] cannot be ordered by Kd: over 25 µM for the first, over 25 µM for the second.

First: COc1ccc(CNC(=O)[C@H](CCOCCOCCOCCN=[N+]=[N-])Sc2nc(=O)[nH]cc2Cl)cc1 [Compound I-400]
Second: COc1ccc(CNC(=O)[C@H](CCOCCOCCOCCN=[N+]=[N-])Sc2nc(=O)[nH]cc2Cl)c(F)c1 [Compound I-402]
The Kd of the first is higher: over 25 µM for the first, 1 to 25 µM for the second.

COc1ccc(CNC(=O)[C@H](COCCOCCOCCN=[N+]=[N-])Sc2nc(=O)[nH]cc2C)cc1 [Compound I-404] and Cc1c[nH]c(=O)nc1S[C@H](COCCOCCOCCN=[N+]=[N-])C(=O)NCc1ccc2c(c1)CC(=O)N2 [Compound I-407] fall in the same range of Kd: 1 to 25 µM for the first, 1 to 25 µM for the second.

First: Cc1c[nH]c(=O)nc1S[C@@H](COCCOCCOCCN=[N+]=[N-])C(=O)NCc1ccc2c(c1)CC(=O)N2 [Compound I-408]
Second: [N-]=[N+]=NCCOCCOCCOCC[C@@H](Sc1nc(=O)[nH]cc1Cl)C(=O)NCc1ccc2c(c1)CC(=O)N2 [Compound I-409]
The Kd of the first is lower: 1 to 25 µM for the first, over 25 µM for the second.

[N-]=[N+]=NCCOCCOCCOCC[C@H](Sc1nc(=O)[nH]cc1Cl)C(=O)NCc1ccc2c(c1)CC(=O)N2 [Compound I-410] and COc1ccc2c(c1)C[C@@H](COCCOCCOCCOCCN=[N+]=[N-])N(C(=O)CSc1nc(=O)[nH]cc1Cl)C2 [Compound I-415] cannot be ordered by Kd: over 25 µM for the first, over 25 µM for the second.

COC[C@H](Sc1nc(=O)[nH]cc1C)C(=O)NCc1ccc2c(c1)CC(=O)N2C [Compound I-412] and COCCNC(=O)CCC(Sc1nc(=O)[nH]cc1C)C(=O)NCc1ccc(OC)cc1 (stereo not drawn) [Compound I-490] fall in the same range of Kd: 1 to 25 µM for the first, 1 to 25 µM for the second.

Compared with COc1ccc2c(c1)C[C@H](COCCOCCOCCOCCN=[N+]=[N-])N(C(=O)CSc1nc(=O)[nH]cc1Cl)C2 [Compound I-416], COc1ccc2c(c1)C[C@H](COCCOCCOCCOCCN=[N+]=[N-])N(C(=O)CSc1nc(=O)[nH]cc1C)C2 [Compound I-487] is higher in Kd: 1 to 25 µM for the first, over 25 µM for the second.

First: COc1ccc2c(c1)CCN(C(=O)[C@@H](COCCOCCOCCN=[N+]=[N-])Sc1nc(=O)[nH]cc1C)[C@@H]2C [Compound I-421, 4-[(1R)-1-[2-[2-(2-azidoethoxy)ethoxy]ethoxymethyl]-2-[(1R)-6-methoxy-1-methyl-3,4-dihydro-1H-isoquinolin-2-yl]-2-oxo-ethyl]sulfanyl-5-methyl-1H-pyrimidin-2-one]
Second: COc1ccc2c(c1)C[C@H](COCCOCCOCCOCCN=[N+]=[N-])N(C(=O)CSc1nc(=O)[nH]cc1Cl)[C@@H]2C [Compound I-428]
The Kd of the first is higher: over 25 µM for the first, 1 to 25 µM for the second. The second binds more tightly here.

COc1ccc2c(c1)[C@H](COCCOCCOCCOCCN=[N+]=[N-])CN(C(=O)CSc1nc(=O)[nH]cc1Cl)[C@@H]2C [Compound I-426] and C#CCOCCOCCOCCOC[C@H]1CN(C(=O)CSc2nc(=O)[nH]cc2Cl)[C@@H](C)c2ccc(OC)cc21 [Compound I-493] fall in the same range of Kd: 1 to 25 µM for the first, 1 to 25 µM for the second.

First: COc1ccc2c(c1)CCN(C(=O)CSc1nc(=O)[nH]cc1Cl)C2 [Compound I-431]
Second: COc1cc(F)c2c(c1)CCN(C(=O)CSc1nc(=O)[nH]cc1Cl)C2 [Compound I-440]
The Kd of the first is lower: 1 to 25 µM for the first, over 25 µM for the second. The first binds more tightly here.

First: C#CCOCCOCCOCCOC[C@@H]1Cc2cc(OC)ccc2[C@@H](C)N1C(=O)CSc1nc(=O)[nH]cc1Cl [Compound I-432]
Second: C#CCOCCOCCOCCOC[C@H]1Cc2cc(OC)ccc2[C@@H](C)N1C(=O)CSc1nc(=O)[nH]cc1Cl [Compound I-433]
The Kd of the first is lower: 1 to 25 µM for the first, over 25 µM for the second. The first binds more tightly here.

COCCOCCC(Sc1nc(=O)[nH]cc1C)C(=O)NCc1ccc(OC)cc1 (stereo not drawn) [Compound I-443] and COCCOCC[C@@H](Sc1nc(=O)[nH]cc1C)C(=O)NCc1ccc(OC)cc1 [Compound I-444] fall in the same range of Kd: 1 to 25 µM for the first, 1 to 25 µM for the second.

C#CCOCCOCCOCCOC[C@@H]1Cc2cc(OC)ccc2[C@H](C)N1C(=O)CSc1nc(=O)[nH]cc1Cl [Compound I-482] and COCCOCC#CCC(Sc1nc(=O)[nH]cc1C)C(=O)NCc1ccc(OC)cc1 (stereo not drawn) [Compound I-500] fall in the same range of Kd: 1 to 25 µM for the first, 1 to 25 µM for the second.

First: COc1ccc(CNC(=O)[C@H](CCc2ccc(O)cc2)Sc2nc(=O)[nH]cc2C)cc1 [Compound I-489]
Second: CC#CCNC(=O)CCC(Sc1nc(=O)[nH]cc1C)C(=O)NCc1ccc(OC)cc1 (stereo not drawn) [Compound I-492]
The Kd of the first is lower: 1 to 25 µM for the first, over 25 µM for the second. The first binds more tightly here.

First: COc1ccc(CNC(=O)C(CCC(=O)N2CCN(C)CC2)Sc2nc(=O)[nH]cc2C)cc1 (stereo not drawn) [Compound I-491]
Second: COCCN1CCN(CCC(Sc2nc(=O)[nH]cc2C)C(=O)NCc2ccc(OC)cc2)CC1 (stereo not drawn) [Compound I-499]
The Kd of the first is higher: over 25 µM for the first, 1 to 25 µM for the second. The second binds more tightly here.

In the case of COCCOCC#CC[C@H](Sc1nc(=O)[nH]cc1C)C(=O)NCc1ccc(OC)cc1 [Compound I-502], the Kd is reported as 1 to 25 µM.
